Laboratory results: patent publication US12077503B2, “Substituted cyclic amides and their use as herbicides” (FMC CORPORATION, priority 2015, dated 2024)

How the values were obtained:
Type in all cases: in vivo
rice (Oryra sativa) = test: Test B flooded paddy test; conditions: Flood, 250 g ai/ha; 0 to 100 scale where 0 is no effect and 100 is complete control; 13 to 15 d
Summary of the method: (§1)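 Greenhouse paddy pots with 2-leaf stage plants received compound by direct addition to floodwater 3 cm deep, kept at that level. Scored visually at 13–15 d versus controls (0 no effect; 100 complete control).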

[1] = test system: barnyardgrass (Echinochloa crus-galli); test: Test B flooded paddy test; conditions: Flood, 250 g ai/ha; 0 to 100 scale where 0 is no effect and 100 is complete control; 13 to 15 d
Summary of the method: as §1

[2] = test system: ducksalad (Heteranthera limosa); test: Test B flooded paddy test; conditions: Flood, 250 g ai/ha; 0 to 100 scale where 0 is no effect and 100 is complete control; 13 to 15 d
Summary of the method: as §1

[3] = test system: sedge, umbrella (small-flower umbrella sedge, Cyperus difformis); test: Test B flooded paddy test; conditions: Flood, 250 g ai/ha; 0 to 100 scale where 0 is no effect and 100 is complete control; 13 to 15 d
Summary of the method: as §1

[4] = test system: giant foxtail (Setaria faberii); test: Test A preemergence; conditions: Preemergence; for Plant response rating, Foxtail, Giant: 125 g ai/ha, visual injury after approximately 10 d, 0 to 100 scale where 0 is no effect and 100 is complete control; for Foxtail, Giant plant response rating (0 to 100 scale, 0 is no effect, 100 is complete control): 500 g ai/ha, visual injury approx. 10 d
Source text: (§2) Seeds of plant species selected from barnyardgrass (Echinochloa crus-galli), Kochia (Kochia scoparia), ragweed (common ragweed, Ambrosia elatior), ryegrass, Italian (Italian ryegrass, Lolium multiflorum), crabgrass, large (Digitaria sanguinalis), giant foxtail (Setaria faberii), green foxtail (Setaria viridis), morningglory (Ipomoea spp.), pigweed (Amaranthus retroflexus), velvetleaf (Abutilon theophrasti), wheat (Triticum aestivum), and corn (Zea mays) were planted into a blend of loam soil and sand and treated preemergence with a directed soil spray using test chemicals formulated in anon-phytotoxic solvent mixture which included a surfactant.
(§3) At the same time, plants selected from these crop and weed species and also blackgrass (Alopecurus myosuroides), and Galium (catchweed bedstraw, Galium aparine) were planted in pots containing the same blend of loam soil and sand and treated with postemergence applications of test chemicals formulated in the same manner. Plants ranged in height from 2 to 10 cm and were in the one- to two-leaf stage for the postemergence treatment. Treated plants and untreated controls were maintained in a greenhouse for approximately 10 d, after which time all treated plants were compared to untreated controls and visually evaluated for injury. Plant response ratings, summarized in Table A, are based on a 0 to 100 scale where 0 is no effect and 100 is complete control. A dash (-) response means no test result.

[5] = test system: ragweed (common ragweed, Ambrosia elatior); test: Test A preemergence; conditions: Preemergence; for Plant response rating, Ragweed: 125 g ai/ha, visual injury after approximately 10 d, 0 to 100 scale where 0 is no effect and 100 is complete control; for Ragweed plant response rating (0 to 100 scale, 0 is no effect, 100 is complete control): 500 g ai/ha, visual injury approx. 10 d
Source text: as §2, §3

[6] = test system: barnyardgrass (Echinochloa crus-galli); test: Test A preemergence; conditions: Preemergence; for Plant response rating, Barnyardgrass: 125 g ai/ha, visual injury after approximately 10 d, 0 to 100 scale where 0 is no effect and 100 is complete control; for Barnyardgrass plant response rating (0 to 100 scale, 0 is no effect, 100 is complete control): 500 g ai/ha, visual injury approx. 10 d
Source text: as §2, §3

Kochia (Kochia scoparia) [7] = test: Test A preemergence; conditions: Preemergence; for Plant response rating, Kochia: 125 g ai/ha, visual injury after approximately 10 d, 0 to 100 scale where 0 is no effect and 100 is complete control; for Kochia plant response rating (0 to 100 scale, 0 is no effect, 100 is complete control): 500 g ai/ha, visual injury approx. 10 d
Source text: as §2, §3

[8] = test system: pigweed (Amaranthus retroflexus); test: Test A preemergence; conditions: Preemergence; for Plant response rating, Pigweed: 125 g ai/ha, visual injury after approximately 10 d, 0 to 100 scale where 0 is no effect and 100 is complete control; for Pigweed plant response rating (0 to 100 scale, 0 is no effect, 100 is complete control): 500 g ai/ha, visual injury approx. 10 d
Source text: as §2, §3

[9] = test system: ryegrass, Italian (Italian ryegrass, Lolium multiflorum); test: Test A preemergence; conditions: Preemergence; for Plant response rating, Ryegrass, Italian: 125 g ai/ha, visual injury after approximately 10 d, 0 to 100 scale where 0 is no effect and 100 is complete control; for Ryegrass, Italian plant response rating (0 to 100 scale, 0 is no effect, 100 is complete control): 500 g ai/ha, visual injury approx. 10 d
Source text: as §2, §3

[10] = test system: blackgrass (Alopecurus myosuroides); test: Test A postemergence
Summary of the method: (§4)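 Seeds sprayed preemergence with a directed soil spray, or plants at 2 to 10 cm height and one- to two-leaf stage sprayed postemergence, with test chemicals in a non-phytotoxic solvent mixture containing surfactant, in loam soil–sand blend. Injury rated visually against untreated controls after about 10 d in greenhouse, 0 (no effect) to 100 (complete control).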

[11] = test system: giant foxtail (Setaria faberii); test: Test A postemergence
Summary of the method: as §4

[12] = test system: ragweed (common ragweed, Ambrosia elatior); test: Test A postemergence
Summary of the method: as §4

[13] = test system: barnyardgrass (Echinochloa crus-galli); test: Test A postemergence
Summary of the method: as §4

[14] = test system: wheat (Triticum aestivum); test: Test A postemergence
Summary of the method: as §4

Kochia (Kochia scoparia) [15] = test: Test A postemergence
Summary of the method: as §4

corn (Zea mays) = test: Test A postemergence
Summary of the method: as §4

[16] = test system: pigweed (Amaranthus retroflexus); test: Test A postemergence
Summary of the method: as §4

[17] = test system: Galium (catchweed bedstraw, Galium aparine); test: Test A postemergence
Summary of the method: as §4

[18] = test system: ryegrass, Italian (Italian ryegrass, Lolium multiflorum); test: Test A postemergence
Summary of the method: as §4

[19] = 125 g ai/ha, postemergence, visual rating after approx. 10 d, 0 to 100 scale (0 no effect, 100 complete control)
[20] = Postemergence, 500 g ai/ha, 0 to 100 scale where 0 is no effect and 100 is complete control

Compound	Plant response rating, Rice (rice (Oryra sativa))	Plant response rating, Barnyardgrass [1]	Plant response rating, Ducksalad [2]	Plant response rating, Sedge, Umbrella [3]	Plant response rating, Foxtail, Giant [4]	Foxtail, Giant plant response rating (0 to 100 scale, 0 is no effect, 100 is complete control) [4]	Plant response rating, Ragweed [5]	Ragweed plant response rating (0 to 100 scale, 0 is no effect, 100 is complete control) [5]	Plant response rating, Barnyardgrass [6]	Barnyardgrass plant response rating (0 to 100 scale, 0 is no effect, 100 is complete control) [6]	Plant response rating, Kochia (Kochia (Kochia scoparia) [7])	Kochia plant response rating (0 to 100 scale, 0 is no effect, 100 is complete control) (Kochia (Kochia scoparia) [7])	Plant response rating, Pigweed [8]	Pigweed plant response rating (0 to 100 scale, 0 is no effect, 100 is complete control) [8]	Plant response rating, Ryegrass, Italian [9]	Ryegrass, Italian plant response rating (0 to 100 scale, 0 is no effect, 100 is complete control) [9]	Plant response rating, Blackgrass [10, 19]	Plant response rating, Blackgrass [10, 20]	Plant response rating, Foxtail, Giant [11, 19]	Plant response rating, Foxtail, Giant [11, 20]	further results
O=C1NCC(c2cc(F)ccc2F)C1C(=O)Nc1cccc(F)c1F (racemic) [Compound 546]	20	70	85	0	90	90	0	0	80	90	0	0	0	0	0	0	0	20	70	90	Plant response rating, Ragweed [12, 19]: 0; Plant response rating, Ragweed [12, 20]: 0; Plant response rating, Barnyardgrass [13, 19]: 80; Plant response rating, Barnyardgrass [13, 20]: 90; Plant response rating, Wheat [14, 19]: 0; Plant response rating, Wheat [14, 20]: 0; Plant response rating, Kochia (Kochia (Kochia scoparia) [15]; [19]): 0; Plant response rating, Kochia (Kochia (Kochia scoparia) [15]; [20]): 0; Plant response rating, Corn (corn (Zea mays); [19]): 0; Plant response rating, Corn (corn (Zea mays); [20]): 20; Plant response rating, Pigweed [16, 19]: 0; Plant response rating, Pigweed [16, 20]: 0; Plant response rating, Galium [17, 19]: 0; Plant response rating, Galium [17, 20]: 0; Plant response rating, Ryegrass, Italian [18, 19]: 0; Plant response rating, Ryegrass, Italian [18, 20]: 0
O=C1NCC(c2cc(F)c(F)cc2F)C1C(=O)Nc1ccccc1F (racemic) [Compound 549]	0	25	90	0	90	90	0	0	40	80	0	0	0	0	0	0	0	20	20	90	Plant response rating, Ragweed [12, 19]: 0; Plant response rating, Ragweed [12, 20]: 0; Plant response rating, Barnyardgrass [13, 19]: 40; Plant response rating, Barnyardgrass [13, 20]: 90; Plant response rating, Wheat [14, 19]: 0; Plant response rating, Wheat [14, 20]: 20; Plant response rating, Kochia (Kochia (Kochia scoparia) [15]; [19]): 0; Plant response rating, Kochia (Kochia (Kochia scoparia) [15]; [20]): 20; Plant response rating, Corn (corn (Zea mays); [19]): 0; Plant response rating, Corn (corn (Zea mays); [20]): 0; Plant response rating, Pigweed [16, 19]: 0; Plant response rating, Pigweed [16, 20]: 0; Plant response rating, Galium [17, 19]: 0; Plant response rating, Galium [17, 20]: 0; Plant response rating, Ryegrass, Italian [18, 19]: 0; Plant response rating, Ryegrass, Italian [18, 20]: 0
O=C1NCC(c2cc(F)c(F)cc2F)C1C(=O)Nc1cccc(F)c1F (racemic) [Compound 550]	50	55	95	0	90	90	0	0	40	90	0	40	0	0	0	20	0	50	80	90	Plant response rating, Ragweed [12, 19]: 0; Plant response rating, Ragweed [12, 20]: 0; Plant response rating, Barnyardgrass [13, 19]: 80; Plant response rating, Barnyardgrass [13, 20]: 90; Plant response rating, Wheat [14, 19]: 0; Plant response rating, Wheat [14, 20]: 30; Plant response rating, Kochia (Kochia (Kochia scoparia) [15]; [19]): 0; Plant response rating, Kochia (Kochia (Kochia scoparia) [15]; [20]): 50; Plant response rating, Corn (corn (Zea mays); [19]): 0; Plant response rating, Corn (corn (Zea mays); [20]): 20; Plant response rating, Pigweed [16, 19]: 0; Plant response rating, Pigweed [16, 20]: 0; Plant response rating, Galium [17, 19]: 0; Plant response rating, Galium [17, 20]: 60; Plant response rating, Ryegrass, Italian [18, 19]: 0; Plant response rating, Ryegrass, Italian [18, 20]: 20
